Laboratory results reported in US9199963B2, “Heterocyclic compound” (Takeda Pharmaceutical Company Limited, priority 2013, dated 2015).

Columns and labels:
[1] = target: T1, human MCH receptor 1 (MCHR1) (Homo sapiens, UniProt Q99705); experiment: Human MCH receptor 1 (MCHR1) competitive inhibitory activity using binding assay; settings: test compound 0.1 μM; [125I]-MCH (4-19); human MCHR1-expressing CHO cellular membrane fraction; read-out: Binding inhibition rate % (0.1 μM)
T1 construct: expressed in transfected cells; host or cells: CHO cell clone 57 (described in WO01/82925); membrane fraction
Description: Determination of Human MCH Receptor 1 (MCHR1) Competitive Inhibitory Activity of Test Compound Using Binding Assay
1. Preparation of Membrane Fraction
In phosphate buffered saline (pH 7.4) supplemented with 5 mM EDTA (ethylenediaminetetraacetic acid) were respectively suspended human MCHR1-expressing CHO cells (1×10^8 cells) and centrifuged. Homogenate buffer (10 mL, 10 mM NaHCO3, 5 mM EDTA, pH 7.5, 0.5 mM PMSF (phenylmethylsulfonyl fluoride), 20 mg/L leupeptin, 4 mg/L E-64, 1 mg/L pepstatin A) was added to the pellets of the cells and, using Polytron Homogenizer, the mixture was homogenated. The supernatant obtained after centrifugation at 400×g for 10 min was further centrifuged at 100,000×g for 1 hr to give precipitate of the membrane fraction. The precipitate was suspended in 2 mL of assay buffer [20 mM Tris-HCl (pH 7.5), 5 mM EDTA, 0.5 mM PMSF, 20 mg/L leupeptin, 4 mg/L E-64, 1 mg/L pepstatin A]. The membrane fractions were suspended in assay buffer to a protein concentration of 2 mg/mL, and after dispensing, preserved at −80° C. and used upon thawing each time when in use.
The MCHR1 ligand binding inhibitory activity of the test compound was determined as follows.
The mixture was reacted with stirring at room temperature for 1 hr, and the plate was set on FilterMate Harvester (PerkinElmer). […] The glass filter plate was dried, MicroScint 0 (PerkinElmer) was added at 25 μL/well, and the resulting radioactivity was measured by TopCount liquid scintillation counter (PerkinElmer). The binding inhibition rate of the test compound was calculated by the following formula. Binding inhibition(%)=100−(radioactivity upon addition of test compound and hot MCH−radioactivity upon addition of cold MCH and hot MCH solution)/(radioactivity upon addition of DMSO solution and hot MCH−radioactivity upon addition of cold MCH and hot MCH solution)×100

human MCHR1 = target: T2, human MCHR1 (Homo sapiens, UniProt Q99705); experiment: MCH receptor 1 antagonistic activity using Ca2+ mobilization assay; type: cell-based; settings: test compound 0.1 μM; ligand MCH (4-19) 2 nM; human MCHR1-expressing CHO cells (clone #4); read-out: Inhibition rate % (0.1 μM)
T2 construct: expressed in transfected cells; host or cells: CHO dhfr- cells, clone #4
Description: Measurement of MCH Receptor 1 Antagonistic Activity of Test Compound Using Ca^2+ Mobilization Assay
Using an expression vector plasmid introduced with human MCHR1 gene for expression in animal cells, human MCHR1 gene was introduced into CHO cells (CHO dhfr^−) by Lipofectamine LTX (Invitrogen). The cells were cultured in selection MEMα medium [445 mL of MEMα medium without nucleic acid and added with 5 mL of Penicillin-Streptomycin (Invitrogen) and 50 mL of dialyzed fetal bovine serum]. Colony 24 clones grown in the selection medium, which were human MCHR1 gene-expressing CHO cell candidates, were selected. […] An integrated dispensing function fluorometer (CellLux, PerkinElmer) was used for Ca^2+ mobilization assay. […] The medium was removed, and the cells were washed with phosphate buffered saline (PBS). A Ca^2+ indicator dye reagent (DOJINDO LABORATORIES, Ca screening no-wash kit Fluo4) was added at 100 μL/well, and the dye was allowed to penetrate into the cells for 30 min in an incubator at 5% CO2, 37° C. The plate was set on a plate reader. First, a test compound solution diluted with an assay buffer [10 mM HEPES (pH 7.4), 1× assay buffer containing 0.1% BSA (DOJINDO LABORATORIES, attached to Ca screening no-wash kit Fluo4)] or DMSO solution was added at 50 μL/well, and then ligand MCH (4-19) peptide (final concentration 2 nM) diluted with assay buffer or DMSO was added at 50 μL/well, during which changes in intracellular fluorescence were measured at 2 second intervals.

[2] = test system: male diet-induced obese F344/Jcl rats; experiment: Anorectic effect using male diet-induced obese F344/Jcl rats; type: in vivo, rat; settings: oral, 5 mg/mL suspension in 0.5% methylcellulose at 2 mL/kg, two administrations; food intake for 2 days vs control group
Description: Evaluation of Anorectic Effect Using Male Diet-Induced Obese F344/Jcl Rats
Male diet-induced obese F344/Jcl rats (41-52 weeks old) fed with a high-fat diet (D12451: Research Diets) from 5 weeks old were used. From before the start of experiment, the rats were singly housed, given a powder high-fat diet (D12451M: Research Diets), and habituated to oral administration with tap water. The food intake from the evening of the day before the start of experiment to the next morning was measured, and the rats were grouped based on both the food intake and the body weight of the previous day. In the evening of the day of the start of experiment and the next day, 0.5% methylcellulose solution was orally administered to the control group, and 0.5% methylcellulose suspension of the test compound (5 mg/mL) was orally administered to the compound administration group at 2 mL/kg (6 per group for both control group and compound administration group). The food intake for 2 days from the initial administration was measured. The food intake inhibition rate of each compound administration group to the control group was calculated.

hERG = hERG (Homo sapiens, UniProt Q12809); experiment: hERG activity measurement by IonWorks Quattro; type: cell-based; settings: 5 minutes exposure, hERG stably expressed in CHO cells (CYL3038)
Chain of hERG (Q12809 whole entry): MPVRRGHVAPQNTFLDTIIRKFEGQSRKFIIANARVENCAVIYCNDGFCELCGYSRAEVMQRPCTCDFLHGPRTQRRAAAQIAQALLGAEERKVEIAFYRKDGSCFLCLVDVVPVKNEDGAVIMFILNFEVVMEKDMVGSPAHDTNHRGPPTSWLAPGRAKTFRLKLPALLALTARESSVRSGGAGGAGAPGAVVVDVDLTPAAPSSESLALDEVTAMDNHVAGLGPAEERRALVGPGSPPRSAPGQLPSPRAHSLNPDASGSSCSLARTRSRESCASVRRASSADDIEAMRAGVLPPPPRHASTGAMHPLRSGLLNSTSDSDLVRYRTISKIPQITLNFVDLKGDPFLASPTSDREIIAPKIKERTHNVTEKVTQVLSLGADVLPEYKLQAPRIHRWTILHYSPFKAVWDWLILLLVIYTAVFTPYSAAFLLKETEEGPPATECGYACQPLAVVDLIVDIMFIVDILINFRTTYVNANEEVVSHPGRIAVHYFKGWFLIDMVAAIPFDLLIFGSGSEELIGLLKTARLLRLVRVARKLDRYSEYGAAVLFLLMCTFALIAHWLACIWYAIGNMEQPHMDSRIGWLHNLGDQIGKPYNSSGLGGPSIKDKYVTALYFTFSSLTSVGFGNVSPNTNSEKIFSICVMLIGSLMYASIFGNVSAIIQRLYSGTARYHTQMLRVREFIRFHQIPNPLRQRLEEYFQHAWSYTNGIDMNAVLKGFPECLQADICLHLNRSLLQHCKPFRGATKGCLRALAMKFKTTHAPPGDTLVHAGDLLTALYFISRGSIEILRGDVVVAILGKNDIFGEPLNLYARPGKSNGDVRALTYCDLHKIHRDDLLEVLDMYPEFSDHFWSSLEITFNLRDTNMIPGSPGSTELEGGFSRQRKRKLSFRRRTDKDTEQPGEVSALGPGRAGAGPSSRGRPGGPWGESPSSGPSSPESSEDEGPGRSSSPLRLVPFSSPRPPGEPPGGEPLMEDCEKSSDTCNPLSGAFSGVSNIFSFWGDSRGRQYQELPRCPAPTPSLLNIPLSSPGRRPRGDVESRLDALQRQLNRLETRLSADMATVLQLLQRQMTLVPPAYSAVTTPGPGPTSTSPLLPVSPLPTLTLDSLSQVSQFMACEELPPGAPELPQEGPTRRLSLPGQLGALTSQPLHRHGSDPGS

T1 sequence (Q99705 whole entry): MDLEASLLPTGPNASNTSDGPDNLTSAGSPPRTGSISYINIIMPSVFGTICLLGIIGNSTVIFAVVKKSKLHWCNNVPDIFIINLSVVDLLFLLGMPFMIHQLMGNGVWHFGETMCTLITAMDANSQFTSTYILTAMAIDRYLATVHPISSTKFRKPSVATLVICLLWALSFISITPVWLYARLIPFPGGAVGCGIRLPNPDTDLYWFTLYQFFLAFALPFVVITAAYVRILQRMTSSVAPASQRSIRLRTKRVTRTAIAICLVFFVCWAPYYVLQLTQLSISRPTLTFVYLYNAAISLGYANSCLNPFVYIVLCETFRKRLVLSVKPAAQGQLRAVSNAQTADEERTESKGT
T2 sequence (Q99705 whole entry): as above

Row | Compound | inhibition at 0.1 µM [1] [%] | inhibition at 0.1 µM (human MCHR1) [%] | Food intake suppression rate (%) [2] [%] | % hERG inhibition (10 μM) (hERG) [%]
1 | Cc1c2cc(-n3ccc(OCc4csc(C(F)(F)F)c4)cc3=O)ccc2nn1C [Example 22, 1-(2,3-dimethyl-2H-indazol-5-yl)-4-{[5-(trifluoromethyl)thiophen-3-yl]methoxy}pyridin-2(1H)-one] | 51 | 69 | 50.7 | 
2 | Cc1c2cc(-n3ccc(OCc4ccc(F)cc4)cc3=O)ccc2nn1C1CC1 [Example 6, 1-(2-cyclopropyl-3-methyl-2H-indazol-5-yl)-4-[(4-fluorobenzyl)oxy]pyridin-2(1H)-one] | 72 | 70 | 26.4 | 
3 | Cc1c2cc(-n3ccc(OCc4ccc(Cl)cc4)cc3=O)ccc2nn1C [Example 1, 4-[(4-chlorobenzyl)oxy]-1-(2,3-dimethyl-2H-indazol-5-yl)pyridin-2(1H)-one] | 72 | 83 | 32.1 | 22.1
4 | Cc1c2cc(-n3ccc(OCc4csc(C(F)(F)F)c4)cc3=O)ccc2nn1C1CC1 [Example 44, 1-(2-cyclopropyl-3-methyl-2H-indazol-5-yl)-4-{[5-(trifluoromethyl)thiophen-3-yl]methoxy}pyridin-2(1H)-one] | 77 | 55 | 30.6 | 

Second part, led by results:

Row | inhibition at 0.1 µM [1] [%] | inhibition at 0.1 µM (human MCHR1) [%] | Compound | Food intake suppression rate (%) [2] [%] | % hERG inhibition (10 μM) (hERG) [%]
5 | 50 | 78 | Cc1c2cc(-n3ccc(OCc4csc(C(F)(F)F)n4)cc3=O)ccc2nn1C1CC1 [Example 46, 1-(2-cyclopropyl-3-methyl-2H-indazol-5-yl)-4-{[2-(trifluoromethyl)-1,3-thiazol-4-yl]methoxy}pyridin-2(1H)-one] | 13.3 | 
6 | 57 | 84 | Cc1c2cc(-n3ccc(OCc4ccc(Br)cc4)cc3=O)ccc2nn1C [Example 25, 4-[(4-bromobenzyl)oxy]-1-(2,3-dimethyl-2H-indazol-5-yl)pyridin-2(1H)-one] | 59.8 | 
